Data from US20250144039A1, “COMPOSITIONS COMPRISING SURFACE MODIFIED GLOBULAR NANO-PARTICLES” (LANDA LABS (2012) LTD., priority 2022, published 2025).

Legend:
[1] = system: skin of pigs' ears; experiment: Ex vivo penetration of composition into skin of pigs' ears (fluorescent marker histology); type: in vitro ADME; details: Nile red marker; pig ear skin, 20 hours at 32° C.
Procedure: The distribution of nano-elements of the present compositions in various skin layers was tested ex vivo by applying core-shell and core-multi-shells (including a second shell forming active agent) nano-elements onto the skin of pigs' ears, the cores of the tested compositions including a fluorescent dye (Nile red) allowing histological monitoring.
The following test and control compositions were prepared and used as set in Table 9.
Tested compositions (2) and (3) were prepared by adding 2 mg of Nile red fluorescent marker during the preparation of the CSSC/fatty amine premix, as described in Example 6. All tested compositions were stored in closed containers at room temperature until they were used.
The compositions were tested on three freshly harvested pig ears, collected on the same day, and kept fresh and cooled till use. The ears were washed with excess saline solution and wiped dry. They were then immobilized for the duration of the study by taping them onto a glass surface, their inner side facing down. Each ear was marked on its outer side with 6 circles having a diameter of about 1 cm. […]
The above tissue sections were evaluated by an expert for the presence and intensity of the marker using a fluorescence microscope at objective magnification of ×10 and ×20.

[2] = Zeta potential measurement (Malvern Zetasizer Nano ZS); type: physicochemical; details: 0.1 g dispersed in 9.9 g of distilled water
Procedure: • Oven: DFO-240, by MRC, Israel • Thermo-rheometer: Thermo Scientific (Germany) Haake Mars III, with a C20/1° spindle, a gap of 0.052 mm, and a shear rate of 10 sec^−1 • Sonicator: VCX 750, by Sonics & Materials, USA • Dynamic Light Scattering and Zeta Potential measurement: Malvern Zetasizer Nano ZS, Malvern Instruments Ltd., UK • Conductivity meter: Eutech CON 700 by Thermo Fisher Scientific, USA • CryoTEM: Talos 200C by Thermo Fisher Scientific, USA, with a Lacey grid • Fluorescence microscope: BX60 microscope, equipped with a digital camera model DP73, by Olympus, Japan
8 g of double distilled water were placed in a 20 ml glass vial. 2 g of the nano-dispersion ND1 obtained in Example 2 were added, and the contents of the vial were shaken by hand for about 10 seconds until a homogeneous mixture was obtained (referred to as charged ND1 or cND1). Zeta potential of the mixture was measured by Malvern Zetasizer Nano ZS and found to be −14.7 mV. Unless otherwise stated, all measurements made with this instrument (e.g., zeta potential and particle size distribution) were performed on samples diluted 1:100 in double distilled water. All pH measurements reported in this and following examples were made at least using a pH test strip adapted to the pH range of relevance, and confirmed in some cases by using a suitable pH meter.

Row | Compound | penetration into skin layers (fluorescence microscopy) [1] | Zeta potential of active agent alone [2] [mV]
1 | CCN(CC)c1ccc2nc3c4ccccc4c(=O)cc-3oc2c1 [Nile red, 9-(diethylamino)-5H-benzo[a]phenoxazin-5-one] | No penetration of the fluorescent marker was observed | 
2 | Sodium hyaluronate [LMW HA] |  | −17
